Residues, ends and D or L forms follow the SMILES beside them.
Key:
[1] = test system: C72 murine anti-DNA antibody; experiment: Direct binding ELISA of C72 to laminin peptides; set-up: species or system mouse
Procedure: (§1) The C72 murine anti-DNA antibody has been derived from (NZB×NZW)F1 lupus mice by the hybridoma technique as described in Eilat D. et al J. Immunol. […] The monoclonal anti-DNA antibodies DIL6 and B3 were derived from lupus patients by hybridoma technique as described in Ehrenstein M. R. et al J. Clin. Invest. (1994) 93 1787-1799 and Ehrenstein M. R. et al Kidney Inter. (1995) 48 705-711.
(§2) Wells were coated with 10 μg/ml of the peptides, blocked with 1% BSA (bovine serum albumin) in PBS (pH 7,4), reacted with appropriately diluted serum or urine samples or monoclonal antibodies, incubated with anti-human or anti-mouse immunoglobulin enzyme conjugated to alkaline phosphatase and detected by addition of substrate (Sigma 100 Phosphatase Substrate Tablets) and color development using an Organon Teknika Microwell System spectrometer at wavelength of 405 nm.
The interaction of the C72 murine anti-DNA antibody with laminin peptides was analyzed by ELISA as described above. The C72 conditioned medium was diluted in PBS in various dilutions.
(§3) The peptides of the present invention were tested for their ability to bind directly with C72 murine anti-DNA antibodies and B3 human anti-DNA antibodies according to the method described hereinabove.

[2] = test system: B3 human anti-DNA antibody; experiment: Direct binding ELISA of B3 to laminin peptides
Procedure: as §1, §2
(§4) The human monoclonal anti-DNA antibodies DIL 6 and B3 were derived from lupus patients by the hybridoma technique. […] In FIGS. 3 and 4, the peptides are referred to as denoted above or as follows; AS30 is R27, AS19 is R35 AS35 is R26, AS17 is R28 and AS6 is R18.
as §3

[3] = test system: human monoclonal anti-DNA antibody DIL 6; experiment: Direct binding ELISA of DIL6 to laminin peptides; conditions: FIGS. 3 and 4
Procedure: as §1, §2, §4

[4] = test system: C72 murine anti-DNA antibody; experiment: Competitive inhibition of C72 binding to 5200; set-up: species or system mouse; conditions: FIG. 2, incubation with inhibiting agent
Procedure: The binding of C72 to 5200 was tested before and after incubation with 5200, R38, R18, Heparin, DNA and DNase. […] The percent inhibition is the percent reduction of the O.D. after incubation with the inhibiting agent.

[5] = test system: murine urinary immunoglobulins; experiment: Binding of murine urinary immunoglobulins, direct binding ELISA; set-up: species or system mouse; conditions: MRL/lpr/lpr mice, pooled urine
Procedure: as §2
Thus, pooled urine from at least 5 mice (either MRL/lpr/lpr or control mice, e.g. BALB/c) was added to wells coated with R38′ (5200), R18 or DNA as described above and bound 5200 assayed by ELISA.
Each group is comprised of pooled urine.

[6] = test system: MRL/lpr/lpr mice; experiment: Effect on clinical course of murine SLE (survival, renal histology); format: in vivo, mouse; conditions: 60 μg i.p. once a week for 16 week, from 6 weeks old, FIG. 8
Procedure: To test whether R38 peptides can affect the course of SLE we have tested their effect on MRL/lpr/lpr mice disease. 60 μg of 5200 (R38′ alone or in peptide combinations, 30 μg of each) in 0.1 ml PBS, was injected i.p. to 6 week old female MLR/lpr/lpr mice once a week for 16 week and the mice were evaluated for survival (FIG. 8), and for renal histology. 50 μg of 5100 (R38) or 5300 (human R38) in 0.1 ml PBS, was injected i.p. to 6 week old MRL/lpr/lpr mice three times a week and the mice were evaluated for survival (FIG. 9), and for renal histology. Control mice received 0.1 ml phosphate buffer solution. Each test and control group contained 12-15 mice.
The survival of MRL/lpr/lpr mice treated with […], 5200 or 5300 was compared to that of PBS treated mice. […] In FIGS. 8 and 9 the time in days shown on the x axis relates to the age of the mice.

[7] = biological target: C72 anti-DNA antibody; experiment: Competitive inhibition of C72 binding to R38 (5100); set-up: species or system mouse; conditions: concentration of competitive inhibitor, ELISA
Description: A competitive inhibition study compared how each of the peptides competes with R38 (5100) for binding to the C72 anti-DNA antibody. Conducted according to the methods described hereinabove, the results of the study are disclosed in Table 4 below and are further elucidated by reference to FIG. 10.

Row | Structure (SMILES) | binding of C72 murine anti-DNA antibody to laminin peptides ([1]; FIG. 1, C72 conditioned medium in various dilutions) | binding of B3 ([2]; FIGS. 3 and 4) | binding of DIL 6 [3] | inhibition of the binding of C72 to 5200 [4] | Binding of murine urinary immunoglobulins to antigen [5] | survival [6] | C72 Binding ([1]; direct binding ELISA test after one (1) hour) | B3 Binding ([2]; direct binding ELISA test after two (2) hours) | 50% Inhibition of C72 binding to mouse R38 (5100) [7]
1 | CC(C)C[C@H](NC(=O)[C@H](CC(=O)O)NC(=O)[C@H](CC(C)C)NC(=O)[C@H](CCCNC(=N)N)NC(=O)[C@@H](NC(=O)[C@H](CCCCN)NC(=O)[C@H](Cc1ccc(O)cc1)NC(=O)CNC(=O)[C@H](CCC(=O)O)NC(=O)[C@@H](N)CCCCN)C(C)C)C(=O)N[C@@H](CC(N)=O)C(=O)N[C@H](C(=O)N[C@H](C(=O)N[C@@H](CC(C)C)C(=O)N[C@@H](CCC(=O)O)C(=O)N[C@@H](Cc1ccccc1)C(=O)N[C@@H](CCCNC(=N)N)C(=O)N[C@H](C(=O)N[C@H](C(=O)N[C@@H](CO)C(=O)N[C@@H](CCCCN)C(=O)O)[C@@H](C)O)[C@@H](C)O)[C@@H](C)O)[C@@H](C)O (stereo in doubt) [Peptide 5200] | binding | found to bind | found to bind | inhibition | 0.26 (*) O.D. at 405 nm | significantly higher than that of control mice |  |  | 
2 | CC[C@H](C)[C@H](NC(=O)[C@H](CC(N)=O)NC(=O)[C@@H](NC(=O)[C@H](CC(=O)O)NC(=O)[C@H](CO)NC(=O)[C@H](CCC(N)=O)NC(=O)[C@@H](NC(=O)[C@H](CCCCN)NC(=O)[C@H](Cc1ccc(O)cc1)NC(=O)CNC(=O)[C@H](CCC(=O)O)NC(=O)[C@@H](N)CCCCN)C(C)C)C(C)C)C(=O)N[C@H](C(=O)N[C@@H](CC(C)C)C(=O)N[C@@H](CCC(=O)O)C(=O)N[C@@H](Cc1ccccc1)C(=O)N[C@@H](CCCNC(=N)N)C(=O)N[C@H](C(=O)N[C@@H](CO)C(=O)N[C@@H](CO)C(=O)N[C@@H](CCC(N)=O)C(=O)O)[C@@H](C)O)[C@@H](C)O [Peptide 5300] (H-KEGYKVQSDVNITLEFRTSSQ-OH; N-terminus and C-terminus assumed) |  |  |  |  |  |  | 0.03 O.D. | 0.03 O.D. | 85 µg/mL

— patent US20020054872A1, “Peptides for the treatment of systemic lupus erythematosus and methods of treating systemic lupus erythematosus” (priority 1997, published 2002)
